Data on 24 molecules can be found in PubChem BioAssay AID330 (DTP/NCI, 2004).

The test system of the assay is P388 leukemia ip, CD2F1 mice, survival T/C. The assay is described as follows: NCI In Vivo Anticancer Drug Screen. Data for tumor model P388 Leukemia (intraperitoneal) in CD2F1 (CDF1) mice. The note with it: endpoint: median survival time, higher = longer survival. In short, it runs like this:
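Mice carrying the transplanted tumor received test compound or vehicle. Survival was recorded in each group, and the value is the treated-group measurement divided by that of the vehicle-treated control group.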

The mark [1] stands for this setting: dose: 50.0 mg/kg/injection, schedule: Q01DX005 (ip), vehicle: saline with Tween-80.
[2] abbreviates: dose: 100.0 mg/kg/injection, schedule: Q01DX005 (ip), vehicle: saline with Tween-80.
Setting [3] is: dose: 200.0 mg/kg/injection, schedule: Q01DX005 (ip), vehicle: saline with Tween-80.
[4] abbreviates: dose: 100.0 mg/kg/injection, schedule: Q04DX003 (ip), vehicle: saline.
Where [5] appears, read: dose: 200.0 mg/kg/injection, schedule: Q04DX003 (ip), vehicle: saline.
[6] abbreviates: dose: 400.0 mg/kg/injection, schedule: Q04DX003 (ip), vehicle: saline.
[7] abbreviates: dose: 50.0 mg/kg/injection, schedule: Q01DX009 (ip), vehicle: saline.
The mark [8] stands for this setting: dose: 100.0 mg/kg/injection, schedule: Q01DX009 (ip), vehicle: saline.
Where [9] appears, read: dose: 50.0 mg/kg/injection, schedule: Q01DX005 (ip), vehicle: Klucel (hydroxypropylcellulose) (HPC).
Where [10] appears, read: dose: 100.0 mg/kg/injection, schedule: Q01DX005 (ip), vehicle: Klucel (hydroxypropylcellulose) (HPC).
Setting [11] is: dose: 200.0 mg/kg/injection, schedule: Q01DX005 (ip), vehicle: Klucel (hydroxypropylcellulose) (HPC).
The mark [12] stands for this setting: dose: 50.0 mg/kg/injection, schedule: Q01DX005 (ip), vehicle: saline.
Setting [13] is: dose: 100.0 mg/kg/injection, schedule: Q01DX005 (ip), vehicle: saline.
Setting [14] is: dose: 200.0 mg/kg/injection, schedule: Q01DX005 (ip), vehicle: saline.
The mark [15] stands for this setting: dose: 12.5 mg/kg/injection, schedule: Q01DX005 (ip), vehicle: saline with Tween-80.
Where [16] appears, read: dose: 25.0 mg/kg/injection, schedule: Q01DX005 (ip), vehicle: saline with Tween-80.

Values joined by “and” are separate entries in the source; they are usually repeats but may differ in a detail not shown here. Equal entries are not always repeated. Toxic doses and inconclusive results are not listed.

For `C(=N\c1oc(-c2ccccc2)c(-c2ccccc2)c1-c1ccccc1)/c1ccccc1`, the T/C is, setting by setting: under setting [1], 88 % of control; under setting [2], 88 % of control; under setting [3], 95 % of control.

On to `CCOC(=O)N[N+]12CCN(CC1)CC2`, for which the T/C is, setting by setting: under setting [4], 100 % of control; under setting [5], 102 % of control; under setting [6], 102 % of control.

As for `Cc1cccn2cnnc12`, the T/C under setting [7] is 119 % of control; the T/C under setting [8] was 119 % of control; the T/C (dose: 200.0 mg/kg/injection, schedule: Q01DX009 (ip), vehicle: saline) is 117 % of control.

In the case of `Cn1cnc2n[nH]nc2c1=O`, the T/C was 105 % of control (dose: 50.0 mg/kg/injection, schedule: Q01DX009 (ip), vehicle: Klucel (hydroxypropylcellulose) (HPC)); 95 % of control (dose: 100.0 mg/kg/injection, schedule: Q01DX009 (ip), vehicle: Klucel (hydroxypropylcellulose) (HPC)); 100 % of control (dose: 200.0 mg/kg/injection, schedule: Q01DX009 (ip), vehicle: Klucel (hydroxypropylcellulose) (HPC)).

Take `[N-]=[N+]=Nc1ccnc2ccc(C3CCCCC3)cc12`: the T/C was 100 % of control (dose: 60.0 mg/kg/injection, schedule: Q01DX005 (ip), vehicle: saline with Tween-80); 92 % of control (dose: 120.0 mg/kg/injection, schedule: Q01DX005 (ip), vehicle: saline with Tween-80); 100 % of control (dose: 240.0 mg/kg/injection, schedule: Q01DX005 (ip), vehicle: saline with Tween-80).

For the molecule `CCN1C2OC3CCC2(C)C2C(OC)C4(O)C1C32C1CC2C(OC)CC4(O)C1C2O` (stereo not drawn), the T/C by setting is: (dose: 0.94 mg/kg/injection, schedule: Q01DX005 (ip), vehicle: saline + alcohol) 106 % of control; (dose: 1.88 mg/kg/injection, schedule: Q01DX005 (ip), vehicle: saline + alcohol) 102 % of control; (dose: 3.75 mg/kg/injection, schedule: Q01DX005 (ip), vehicle: saline + alcohol) 108 % of control; (dose: 7.5 mg/kg/injection, schedule: Q01DX005 (ip), vehicle: saline + alcohol) 102 % of control.

As for `CC1(C)COC(=O)/C1=C1\SC(=O)NC1=O`, the T/C is, setting by setting: under setting [4], 95 % of control; under setting [5], 94 % of control; under setting [6], 102 % of control.

For the molecule `COc1ccc([P+](CCN2C(=O)c3ccccc3C2=O)(c2ccc(OC)cc2)c2ccc(OC)cc2)cc1`, the T/C (dose: 0.78 mg/kg/injection, schedule: Q01DX009 (ip), vehicle: water) is 121 % of control; the T/C (dose: 1.56 mg/kg/injection, schedule: Q01DX009 (ip), vehicle: water) is 114 % of control; the T/C (dose: 2.7 mg/kg/injection, schedule: Q01DX009 (ip), vehicle: water) was 116 % of control; the T/C (dose: 3.13 mg/kg/injection, schedule: Q01DX009 (ip), vehicle: water) is 121 % of control; the T/C (dose: 12.5 mg/kg/injection, schedule: Q01DX009 (ip), vehicle: water) is 92 % of control.

Consider `CCCCCCCCCCCCCCCCONc1ccnc(=O)[nH]1`, for which the T/C is, setting by setting: (dose: 37.5 mg/kg/injection, schedule: Q01DX001 (ip), vehicle: Klucel (hydroxypropylcellulose) (HPC)) 91 % of control; (dose: 75.0 mg/kg/injection, schedule: Q01DX001 (ip), vehicle: Klucel (hydroxypropylcellulose) (HPC)) 91 % of control.

Turning to `N#Cc1ccc(-c2nc3ncnc(N)c3[nH]2)cc1`, the T/C runs as follows: (dose: 60.0 mg/kg/injection, schedule: Q01DX005 (ip), vehicle: Klucel (hydroxypropylcellulose) (HPC)) 92 % of control; (dose: 120.0 mg/kg/injection, schedule: Q01DX005 (ip), vehicle: Klucel (hydroxypropylcellulose) (HPC)) 90 % of control; (dose: 240.0 mg/kg/injection, schedule: Q01DX005 (ip), vehicle: Klucel (hydroxypropylcellulose) (HPC)) 91 % of control.

Turning to `CC(C)(CBr)COP1(=O)NCC(C)(C)CO1` (stereo not drawn), the T/C was 106 % of control under setting [9], 105 % of control under setting [10] and 106 % of control under setting [11].

Turning to `CCOP(=O)(O)SP(=O)(O)OCC.CCOP(=O)(O)SP(=O)(O)OCC.[Mn]`, the T/C was 117 % of control (dose: 50.0 mg/kg/injection, schedule: Q04DX002 (ip), vehicle: saline); 113 % of control and 117 % of control (dose: 100.0 mg/kg/injection, schedule: Q04DX002 (ip), vehicle: saline).

Take `CCOC(=O)NCCCCC([NH-])C(=O)O.CCOC(=O)NCCCCC([NH-])C(=O)O.[Cu+2]` (stereo not drawn): the T/C was 101 % of control under setting [7] and 92 % of control under setting [8].

For `NNC(=O)C(=O)N/N=C(\CC1(O)C(=O)Nc2ccccc21)c1ccccc1O` (stereo not drawn), the T/C runs as follows: under setting [1], 104 % of control; under setting [2], 98 % of control; under setting [3], 103 % of control.

Regarding `CC(CO)CC(C)(C)C` (stereo not drawn), the T/C is 101 % of control (dose: 25.0 mg/kg/injection, schedule: Q01DX005 (ip), vehicle: saline); 108 % of control under setting [12]; 104 % of control under setting [13]; 109 % of control under setting [14].

As for `Cc1ccc(NCCN(C)C)c2c(=O)c3c(O)cccc3sc12`, the T/C (dose: 50.0 mg/kg/injection, schedule: Q01DX009 (ip), vehicle: suspension in saline) was 166 % of control.

On to `S=C(c1c(Cl)cccc1Cl)N1CN(Cc2ccc(Cl)cc2)CN(Cc2ccc(Cl)cc2)C1`, for which the T/C was 99 % of control (dose: 50.0 mg/kg/injection, schedule: Q01DX009 (ip), vehicle: saline with Tween-80); 96 % of control (dose: 100.0 mg/kg/injection, schedule: Q01DX009 (ip), vehicle: saline with Tween-80); 108 % of control (dose: 200.0 mg/kg/injection, schedule: Q01DX009 (ip), vehicle: saline with Tween-80).

Consider `CCC1(CC)C(=O)NC(=O)NC1(OC)OC`, for which the T/C was 98 % of control under setting [12], 106 % of control under setting [13] and 100 % of control under setting [14].

Consider `COC(=O)C1(O)C(=O)NC2=C1C(=O)c1ccccc1C2=O` (stereo not drawn), for which the T/C by setting is: under setting [15], 99 % of control and 95 % of control; under setting [16], 98 % of control and 110 % of control; under setting [1], 105 % of control.

In the case of `O=C1C2C3C4C5C(C2C5(Br)C32OCCO2)C14Br` (stereo not drawn), the T/C was 106 % of control (dose: 100.0 mg/kg/injection, schedule: Q04DX003 (ip), vehicle: Klucel (hydroxypropylcellulose) (HPC)); 107 % of control (dose: 200.0 mg/kg/injection, schedule: Q04DX003 (ip), vehicle: Klucel (hydroxypropylcellulose) (HPC)); 113 % of control (dose: 400.0 mg/kg/injection, schedule: Q04DX003 (ip), vehicle: Klucel (hydroxypropylcellulose) (HPC)).

In the case of `O=C1CC2(C(=O)N1CN1CCN(c3ccc(F)cc3)CC1)c1ccccc1-c1ccccc12` (tested in a mixture with another compound), the T/C (dose: 100.0 mg/kg/injection, schedule: Q04DX003 (ip), vehicle: saline with Tween-80) is 90 % of control.

Consider `NCCCCC(C(=O)NC(Cc1ccccc1)C(=O)O)N(C(=O)OCc1ccccc1)C(=O)OCc1ccccc1` (stereo not drawn), for which the T/C runs as follows: under setting [1], 96 % of control; under setting [2], 101 % of control; under setting [3], 92 % of control.

Regarding `NC(=O)c1[nH]cnc1O`, the T/C by setting is: under setting [15], 114 % of control; under setting [16], 107 % of control; under setting [1], 108 % of control and 123 % of control; under setting [2], 114 % of control and 123 % of control; (dose: 100.0 mg/kg/injection, schedule: Q04DX002 (ip), vehicle: saline with Tween-80) 100 % of control; under setting [3], 123 % of control. Moreover, for the setting “dose: 200.0 mg/kg/injection, schedule: Q04DX002 (ip), vehicle: saline with Tween-80”, the T/C was 110 % of control.

As to `COC(=O)CC[C@@H]1C(C)=CC(=O)[C@@]2(F)[C@H]1CCC1=CC(=O)C=C[C@@]12C`, the T/C was 108 % of control under setting [9], 100 % of control under setting [10] and 109 % of control under setting [11].
